Reference: ChEMBL document CHEMBL5226329, “Synthetic and computational efforts towards the development of peptidomimetics and small-molecule SARS-CoV 3CLpro inhibitors” (Bioorg Med Chem, 2021)
Where a SMILES comes first, the peptide text is derived from it. The star is where a group is joined. Cbz = O=C(OCc1ccccc1)*; CF3 = FC(F)(F)*

Columns and labels:
[1] = Inhibition of recombinant Hepatitis A virus proteinase 3C using Ac-Leu-Ala-Ala-OH as a substrate expressed in Escherichia coli incubated for 15 mins by SDS-PAGE assay; set-up: species or system Hepatovirus A
[2] = Inhibition of Severe acute respiratory syndrome coronavirus proteinase 3C using (Dabcyl-KTSAVLQSGFRKME-Edans peptide as a substrate assessed as inhibition constant by fluorescence based assay; set-up: species or system Severe acute respiratory syndrome-related coronavirus
[3] = Inhibition of Severe acute respiratory syndrome coronavirus proteinase 3C using (Dabcyl-KTSAVLQSGFRKME-Edans peptide as a substrate by fluorescence based assay; set-up: species or system Severe acute respiratory syndrome-related coronavirus
[4] = Inhibition of Severe acute respiratory syndrome coronavirus proteinase 3C using Abz-SVTLQSG-Tyr(NO2)R peptide as a substrate; set-up: species or system Severe acute respiratory syndrome-related coronavirus
[5] = Inhibition of Severe acute respiratory syndrome coronavirus proteinase 3C using Dabcy-KTSAVLQSGFRKME-Edans peptide as a substrate; set-up: species or system Severe acute respiratory syndrome-related coronavirus
[6] = Inhibition of Severe acute respiratory syndrome coronavirus proteinase 3C by FRET assay; set-up: species or system Severe acute respiratory syndrome-related coronavirus
[7] = Inhibition of Severe acute respiratory syndrome coronavirus proteinase 3C using Dabcy-KTSAVLQSGFRKME-Edans peptide as a substrate incubated for 10 mins by fluorescence based assay; set-up: species or system Severe acute respiratory syndrome-related coronavirus
[8] = Inhibition of Severe acute respiratory syndrome coronavirus proteinase 3C assessed as inhibition constant by spectrophotometry assay; set-up: species or system Severe acute respiratory syndrome-related coronavirus
[9] = Inhibition of Severe acute respiratory syndrome coronavirus proteinase 3C using EDANS-Val-Asn-Ser-Thr-Leu-Gln-Ser-Gly-Leu-Arg-Lys-(Dabcyl)-Met substrate incubated for 1 hr by fluorescence based assay; set-up: species or system Severe acute respiratory syndrome-related coronavirus

## CC(=O)N[C@@H](CC(C)C)C(=O)N[C@@H](C)C(=O)N[C@@H](C)C(=O)N[C@@H](C[C@@H]1CCNC1=O)C(=O)Cn1[nH]c(=O)c2c([N+](=O)[O-])cccc2c1=O
[1]
  IC50: 1600 nM

## CC(=O)N[C@@H](CC(C)C)C(=O)N[C@@H](C)C(=O)N[C@@H](C)C(=O)N[C@@H](CCC(=O)N(C)C)C(=O)Cn1[nH]c(=O)c2ccccc2c1=O
[1]
  IC50: 13000 nM

## CN(C)c1ccc(C(=O)N[C@@H](Cc2ccccc2)C(=O)Nc2ccc([N+](=O)[O-])cc2Cl)cc1
[2]
  Ki: 30 nM
[3]
  IC50: 60 nM

## CC(=O)N[C@H](C(=O)N[C@H](C(=O)N[C@@H](CC(C)C)C(=O)N[C@@H](C[C@@H]1CCNC1=O)C(=O)Cn1[nH]c(=O)c2c([N+](=O)[O-])cccc2c1=O)C(C)OCc1ccccc1)C(C)C (stereo not given in full)
[4]
  IC50: 600 nM

## O=C[C@H](C[C@@H]1CCNC1=O)NC(=O)[C@H](Cc1ccccc1)NC(=O)/C=C/c1ccc(Cl)cc1F
[5]
  IC50: 200 nM

## O=C(/C=C/c1ccccc1)Nc1ccccc1SC(=O)/C=C/c1ccccc1
[6]
  IC50: 1060 nM
[7]
  IC50: 1060 nM

## CC(C)C[C@H](NC(=O)[C@@H](NC(=O)OCc1ccccc1)C(C)C)C(=O)N[C@@H](CCC(=O)O)C(=O)C(F)(F)F (Cbz-Val-Leu-Glu-CF3)
[8]
  Ki: 116000 nM

## CN(C)CCCSc1ccccc1NC(=O)/C=C/c1ccccc1 [CINANSERIN]
[9]
  IC50: 19000 nM
